Measurements taken from a melting point compilation (Tetko et al.; mined from patent text by program, amines drawn as free bases though some values may be those of a salt).
Residues, ends and D or L forms follow the SMILES beside them. *: point of attachment. OiPr = CC(C)O*

Structure (SMILES) | melting point
CCC[C@@H]1O[C@](/C=C/C2CC2)(C(F)(F)F)c2cc(Cl)ccc2NC1=O (relative stereo) | 165 to 167 °C
C=Cn1cc(C(=O)O)c(=O)c2cc(F)c(N3CCC4CCC(C3)N4C)cc21 (stereo not drawn) | 214 to 215 °C
COc1ccc(NC(=O)[C@H]2[C@H](c3ccccc3)C23CCCC3)c(OC)n1 (relative stereo) | 131 to 133 °C
COc1cc(C(=O)N(CCCC(=O)O)c2cccc3ccccc23)cc(OC)c1OC | 143 to 145 °C
C[Si](O)(Cn1cncn1)c1ccc(-c2ccccc2)cc1 (stereo not drawn) | 97 to 99 °C
O=C(O)CC(Cc1c[nH]c2ccccc12)C(=O)O (stereo not drawn) | 144 to 145 °C
N#Cc1[nH]c(Br)c(Br)c1-c1ccc(Cl)cc1 | > 250 °C
CCOC(=O)c1ccc2ccccn2c1=O | 105 to 109 °C
Cc1cc(NNC(=O)OC(C)(C)C)nnc1-c1ccc(C#N)cc1 | 169 to 171 °C
Cc1cc(C)c2ncn(/C=C/C(=O)O)c(=O)c2c1 | 284 to 288 °C
Cc1c(-c2ncc(Cl)cc2F)nn(C)c1C(=O)O | 194 to 196 °C
CCOC(=O)Oc1ccc(S(=O)(=O)N2c3ccc(Cl)cc3-n3cccc3C2CC)cc1 (stereo not drawn) | 117 to 119 °C
CC(C)c1cc(C(C)C)n(-c2ccc(NC(=O)c3cccnc3)cc2)n1 | 190 to 192 °C
CCC(=O)c1cc(CC)c(OC)cc1OC | 64 to 65 °C
O=CN1CCN(C(=O)CCBr)CC1 | 96 to 98 °C
O=C1CCCC(c2ccc(O)c(O)c2)N1c1ccc(Cl)cc1 (stereo not drawn) | 205 to 207 °C
CN(C)c1cc(C(O)CNC(C)(C)C)ccc1O (stereo not drawn) | 108 to 110 °C
CCOC(=O)C(C#N)=C(c1ccc(F)cc1)c1ccc(F)cc1 | 114 to 116 °C
Cc1ccc(N2C(=O)NC(=O)C23CCN(Cc2ccccc2)CC3)cc1 | 291 to 293 °C
COc1ccc(-c2[nH]nc3c2C(=O)c2c(NC(=O)CNCCO)cccc2-3)cc1 | 243 °C
CCN(CC)C(=O)CCc1nc(-c2ccccc2)nc2ccc(Br)cc12 | 146 °C
COCC1(C)CCCOc2cc(/C=C/c3ccc(C(=O)O)cc3)ccc21 (stereo not drawn) | 194 to 196 °C
CC(C)(C)Cc1ccc(Oc2ccc(C(O)c3ccncc3)cc2)cc1 (stereo not drawn) | 120 to 122 °C
O=C(Nc1ccsc1)c1ccccc1 | 155 to 156 °C
CC(C)OC(=O)C(CO)NC(=O)C(CC(=O)O)NC(=O)C1CCCN1 (stereo not drawn) (H-Pro-Asp-Ser-OiPr; configuration not given here) | 230 to 233 °C
CCCN(CCC)Cc1nnc(-c2ncn3c2CN(C)C(=O)c2c-3ccc(F)c2Cl)o1 | 128 to 130 °C

Structure (SMILES) | melting point
CCCCc1c[nH]c2ccc(CO)cc2c1=O | 260 °C
Cc1ccc(-c2[nH]c3ccc(Cl)cc3c2-c2ccc(S(C)(=O)=O)cc2)cc1 | 238 to 240 °C
CNC(=O)C(CNC(=O)c1ccccc1)NC(=O)OC(C)(C)C (stereo not drawn) | 222 to 223 °C
O=c1oc(-c2ccccc2)cc(O)c1SCCc1ccccc1 | 121 to 124 °C
COC(=O)c1nnc(NC(=O)CCCOc2cccc(CN3CCCCC3)c2)n1C | 108 to 110 °C
C#CCn1c(C#N)ccc1-c1ccc2c(c1)C(C)(C)OC(=O)N2 | 222 to 224 °C
CCCCc1nc(-n2cccc2)c(C(=O)OCC)[nH]1 | 74 to 77 °C
CCOCc1cc2ccc(OCc3ccccc3)cc2oc1=O | 122 to 124 °C
O=C(Oc1cc(OC(=O)c2ccc(O)c(O)c2)c2ccccc2c1)c1ccc(O)c(O)c1 | 79 to 81 °C
O=C(NCCc1ccccc1)c1c(Cl)ccc2nc(N3CCC(C(=O)O)CC3)ccc12 | 260 to 262 °C
CCOC(=O)C1C(=O)NC(=O)C(CCN(C)C)(c2cccc(OC)c2)C1CC (stereo not drawn) | 160 to 162 °C
CCC(CC)c1ccc(Cl)c2nc(Nc3ccc(Br)cc3C)n(CCCCO)c12 | 151 to 152 °C
Cc1cccn2c(=O)cc(/C=C/c3ccccc3)nc12 | 150 to 152 °C
FC(F)(F)c1ccc2nc(N3CCN(c4c(Cl)cccc4Cl)CC3)[nH]c2c1 | 263 to 265 °C
CC(C)=CC=C(C#N)c1ccccc1 | 66 to 67 °C
Cn1cc(C2=CCN(CCCn3nnc4ccccc4c3=O)CC2)c2ccccc21 | 70 °C
CCCCc1cc(NCc2ccc(-c3ccccc3C#N)cc2)n2nccc2n1 | 200 to 202 °C
CS(=O)(=O)c1ccc(-c2cnn(-c3ccc(F)cc3)c(=O)c2N2CCCC2)cc1 | 192 to 195 °C
CCNC(=O)ON=C1CCOc2ccccc21 | 110 to 111 °C
O=C(CNc1c(C(=O)O)[nH]c2cc(Cl)ccc12)c1ccccc1O | 198 to 200 °C
O=S(=O)(c1c[nH]c(Br)c1-c1ccc(Cl)cc1)C(F)(F)F | 163 to 165 °C
COc1c(Br)ccc2s[nH]c(=O)c12 | 197 to 198 °C
Cc1nc2c(O)c(CC[C@@H](O)c3ccccc3)c(C(=O)N3CCC3)cc2n1C | 265 to 266 °C
CCc1ccc(CC2N=C(c3ccc(F)cc3)c3cc(Cl)ccc3NC2=O)cc1CC (stereo not drawn) | 88 to 90 °C
Cc1ccc(C2=NN(C(=O)c3cccnc3)CC2)cc1 | 100 to 102 °C
CCOc1ccc(-c2nc(CCC(=O)c3ccccc3OC)cs2)cc1OCC | 68.9 to 69.3 °C

Structure (SMILES) | melting point
Cc1cc(-c2nc3cccnn3c2-c2ccnc(NC(=O)c3ccccc3C)c2)ccc1F | 265 to 266 °C
COc1ccc(C(=O)N(c2ccccc2)c2ccc(OCCCN(C)C)cc2)c(OC)c1 | 78.5 to 82.5 °C
CCCCc1oc2ccc(N)cc2c1C(=O)c1ccc(OCCCO)cc1 | 86 to 90 °C
CC(=O)OC1Cc2ccc(N)cc2C1 (stereo not drawn) | 237 to 239 °C
CCC(=O)OC1(C)CCCC2C3C=CC(C3)C21 (stereo not drawn) | 30 °C
CC(CC(O)=S)(c1ccc(OCc2ccc3ccccc3n2)cc1)c1ccc(OCc2ccc3ccccc3n2)cc1 | 92 to 94 °C
NS(=O)(=O)Oc1ccc2ccccc2c1 | 114 to 115 °C
CC(C)(C)OC(=O)CN1CCN(CC(=O)OC(C)(C)C)C1=O | 100 to 102 °C
Cc1ccccc1N(CC(=O)N(C)c1ccccc1)C(=O)CN1C(=O)c2ccccc2C1=O | 120 °C
COc1ccc(C(=CC(=O)N2CCOCC2)c2ccc(O)cc2)cc1OC | 105 to 120 °C
O=c1ccc(-c2ccc(OC3CCN(C4CCCC4)CC3)nc2)n[nH]1 | 233 to 237 °C
NC(N)=Nc1nc(N2CCOCC2)nc2ccccc12 | 197 °C
O=C1c2ccc(O)cc2OCC1Cc1cccnc1 (stereo not drawn) | 181 to 190 °C
Cc1cccc2c(=O)nc(-c3ccccn3)sc12 | 198 °C
CCCCCCCCCCCCCCCC(=O)OCC(CO)OC(=O)CCCCCCCCCCCCCCC (stereo not drawn) | 67 to 68 °C
CN(N)c1cc(N)nc(N)n1 | 214 to 217 °C
CCN(CC)C(=O)N1CCC(C(O)(c2ccc(Cl)cc2)c2ccc(Cl)cc2)CC1 | 172 to 175 °C
CCn1c(Cl)c(C=O)c(=O)n(CC)c1=NO | 115 to 116 °C
CC(C)C[C@@H](CC=O)NC(=O)[C@H](Cc1c[nH]cn1)NC(=O)[C@H](Cc1ccccc1)NC(=O)OCc1ccccc1 | 173 to 175 °C
CCOc1ccc(O)cc1C=O | 108 to 109 °C
CCN(C)c1nc2sc3c(NCCN4CCOCC4)ncnc3c2c2c1CCC(C)(C)C2 | 144 °C
O=C(NCCOc1ccc(CC(Oc2ccccc2)C(=O)O)cc1)c1ccc(-c2ccc(F)cc2)cc1 (stereo not drawn) | 195 to 196 °C
CCOC(=O)C1CCN(c2cc(-c3ccc(Cl)cc3)nc3ccccc23)CC1 | 124 to 126 °C
CCC(C)(CC)c1nnc(NC(=O)c2ccccc2)s1 | 98 to 100 °C
Cc1cc2c(cc1Cl)C(CC(=O)O)(c1ccccc1OC(C)C)C(=O)N2 (stereo not drawn) | 148 to 150 °C
CC(C)(C)OC(=O)N1CCC(Oc2cccc3[nH]ccc23)C1 (stereo not drawn) | 164 to 165 °C

Structure (SMILES) | melting point
CCS(=O)(=O)c1cccnc1S(N)(=O)=O | 211 to 212 °C
COC(=O)c1ccc(N)c(C=C(Br)Br)c1 | 112 to 113 °C
CS(=O)(=O)c1ccc(-n2cnc(Cl)c2-c2ccc(Cl)c(Cl)c2)cc1 | 156 to 157 °C
COc1cc(CC(=O)O)cc2c1C(=O)c1ccccc1CC2 | 189 to 199 °C
O=C1c2ccccc2C(=O)N1CCS(=O)(=O)CCO | 120 to 122 °C
CC(C)(C)c1ccc(C(=O)C(Cl)(Cl)Cl)cc1 | 59 to 62 °C
Cc1noc2cc3c(cc12)C1(CO3)C(=O)N(Cc2ncccc2F)c2ccccc21 (stereo not drawn) | 167 to 169 °C
c1ccc2c(c1)N=C(N1CCNCC1)c1ccccc1S2 | 66 to 69 °C
CN(C)C(c1ccccc1)C1CCCCC1(O)Cc1cccc(F)c1 (stereo not drawn) | 146 to 147 °C
c1ccc(CN2CCC(COc3ccccc3)CC2)cc1 | 56 to 57 °C
BrCc1ccccc1Oc1ccc(Br)cc1 | 56 to 58 °C
CSCC(=O)[C@H](Cc1ccccc1)NC(=O)[C@H](CC(C)C)NS(=O)(=O)c1ccccc1 | 133 to 136 °C
CCCCCCCCNC(=O)ON=C(Cc1ccccc1)C1=CC(=O)C(C)(C)O1 | 67 to 68 °C
Fc1ccc(-c2cnn(CCC#Cc3ccccn3)n2)cc1 | 83.5 to 84.5 °C
CCOC(=O)C1=C(C#N)Nc2ccnc(OC(C)C)c2C1c1ccccc1C(F)(F)F (stereo not drawn) | 138 to 140 °C
C[C@H](C(=O)c1ccccc1F)n1ccn(-c2ccc(OC(F)(F)C(F)F)cc2)c1=O | 78 to 79 °C
O=C(C1=NC=CC(Br)(C(=O)Nc2ccccc2)C1)c1ccccc1 (stereo not drawn) | 137 to 138 °C
CC(c1ccc(O)cc1)c1ccc(O)cc1 | 123 to 125 °C
CS(=O)(=O)c1ccc(/C(=C\C2CCCC2)C(=O)O)cc1 | 200 to 202 °C
CC(=O)c1cc(N2CCOCC2)ccc1NC(=O)c1cccc2c1OCO2 | 150 to 152 °C
CC(C)(C)C(CC#N)(SN=O)C(C)(C)C | 92 to 93 °C
O=C(O)c1cccc(Oc2ncccc2C(=O)NCc2ccccc2)c1 | 157 to 158 °C
Cc1ccc(Cl)c(N2C(=O)C(=O)c3ccccc32)c1Cl | 164 to 166 °C
N#Cc1ccccc1-c1ccc(CNc2ccnc3ccnn23)cc1 | 170 °C
COc1cc(Nc2nccc(-c3sc(NCCc4ccccc4)nc3C)n2)cc(OC)c1 | 201 to 202 °C
